Assays:
[1] = Single dose oral pharmacokinetic studies in rabbits; format: in vivo, male New Zealand White rabbits; conditions: for Plasma concentration, mean: 90 mg/kg b.w. oral; for AUCextrap / AUC(0-inf) / AUC(0-t) / Cmax / MRT last / Tmax / half-life: 90 mg/kg b.w. oral single dose; for AUC(0-inf) / AUC(0-t) / Cmax / MRT last / Tmax / half-life: male, New Zealand White, plasma, po, 90 mg/kg
Protocol: The studies detailed below (and referred to as Examples 2 to 8) were conducted to provide comparative single dose oral pharmacokinetics data for Compound 1, as well as sodium and potassium salts of that compound, using non-coated and enteric-coated capsules in male New Zealand White rabbits.
Compound 1 was made using the process described in WO 2011/004162 and milled as described for Example 1c. The non-coated or enteric coated gelatin capsules were individually filled with 180 mg of dry-milled Compound 1 together with accompanying excipients as indicated. Both capsule types were filled with Compound 1 together with 1.8 mg of sodium docusate, 0.18 mg of PVP K30 and 9 mg of mannitol.
Similarly, Compound 2, non-coated or enteric coated gelatin capsules were individually filled with 180 mg of dry-milled Compound 2 (as obtained in Example 1f) together with 1.8 mg of sodium docusate, 0.18 mg of PVP K30 and 9 mg of mannitol.
For Compound 3, non-coated or enteric coated gelatin capsules were individually filled with 90 mg of dry-milled Compound 3 (as obtained in Example 1i) together with 0.90 mg of sodium docusate, 0.09 mg of PVP K30 and 4.50 mg of mannitol.
40 mL of the 2% w/v methyl cellulose solution was added to a 250 mL conical flask together with 10 g of 2 mm glass beads, and vigorously stirred. Compound 1 (720 mg) was slowly added to the solution and the mixture was with continuously stirred for 1 h. The homogenate was transferred to separate flask and its pH recorded. The suspension formulation was prepared before administration to the animals.
Adult healthy male New Zealand white rabbits aged approximately 2 to 3 months old were used for experimentation after 7 days of acclimatization.
To dose the filled capsules, a soft plastic dosing tube was used. The filled capsule was inserted into the dosing tube so that the short end of the capsule protrudes slightly from the tip of the tube. The tip of the capsule was dipped in mineral oil to aid swallowing.
To dose the suspension, an infant feeding tube was used. The feeding tube was inserted through the mouth of the rabbit to the oesophagus and the stomach, and ascertained that it has not been placed in the trachea before dosing to the animals. The suspension of the Compound 1 was administered through the feeding tube. After the administration of the suspension, drinking water of approximately 2.0-2.5 mL was administered to flush out the contents in the feeding tube.
The animals were restrained in a rabbit restrainer and blood samples (400-500 μL/time point) were collected via the central ear artery at 0.16, 0.25, 0.50, 1.0, 2.0, 4.0, 6.0, 8.0, 24.0, 48.0 and 72 hours post-dosing. Collected blood specimens were centrifuged at 4000 or 6000 rpm, 4° C. for 10 minutes and plasma samples were separated and stored at −80° C. until analysis.
Concentrations of the analyte of Compound 1 in New Zealand white rabbits was determined using an API 3200 Q-trap LC-MS/MS system.
Chromatographic separation was achieved on Zorbax C18, 50×4.6 mm, 5 μm column with methanol-0.1% formic acid as mobile phase with gradient elution. The flow rate was set at 1.0 mL min^−1. Detection was accomplished by a triple-quadrupole tandem mass spectrometer in multiple-reaction monitoring (MRM) scanning via electrospray ionization source, applied in the positive mode. The optimised mass transition ion-pairs for quantitation were m/z 379.999→125.000 for the compound 1 and m/z 376.165→165.00 for the ISD (Haloperidol). Calibration plots were linear over the range of 11.062 to 20594.820 ng/mL.
The data of plasma concentration to respective time points for the analyte Compound 1 were used for the pharmacokinetic analysis. Pharmacokinetic analysis was performed using non-compartmental analysis (NCA) module of Phoenix WinNonlin 6.3 software to determine the following pharmacokinetic parameters: • Cmax • Tmax • AUC0-t • AUC0-∞ • T1/2 • MRT […]

[2] = Particle size analysis of dry-milled products (laser diffraction, Shimadzu SALD-2300); format: physicochemical
Protocol: Milling was performed for Examples 1a to 1c using an air jet mill (Equipment code: CP-AJM-01; Promas engineers) with the following parameters: Micronisation was repeated in all examples by performing the air jet milling for a second time using the same parameters. This allowed the particle size D90 to be reduced to less than 10 μm. [table] Four drops of Tween 20 were added to 25 mL of water and the mixture was sonicated for 3 minutes to form the dispersant solution. 0.05 g of milled material was transferred into a 250 mL glass beaker. 25 mL of the dispersant solution (Tween 20/water mixture) was added to the beaker with continuous swirling for 2 to 3 minutes. The suspension was transferred into the measuring unit and the particle size distribution measurements were conducted in triplicate.

[3] = rabbit, enteric coated capsule, rabbit plasma (Examples 5, 6, 7)
[4] = rabbit, non-coated capsule, rabbit plasma (Examples 2, 3, 4)
[5] = after 1st milling (air jet mill)
[6] = after 2nd milling (air jet mill)

O=C(Nc1nc(=O)n(Cc2ccc(Cl)cc2)s1)c1ccc(Cl)cc1.[K] [Compound 3, 4-chloro-N-[2-[(4-chlorophenyl)methyl]-3-oxo-1,2,4-thiadiazol-5-yl]benzamide potassium salt]
Plasma concentration, mean ([1]; 0.00 h, enteric coated capsule, rabbit): 0.000 ng/mL
Plasma concentration, mean ([1]; 0.00 h, non-coated capsule, rabbit): 0.000 ng/mL
Plasma concentration, mean ([1]; 0.16 h, enteric coated capsule, rabbit): 0.000 ng/mL
Plasma concentration, mean ([1]; 0.16 h, non-coated capsule, rabbit): 169.000 ng/mL
Plasma concentration, mean ([1]; 0.25 h, enteric coated capsule, rabbit): 0.000 ng/mL
Plasma concentration, mean ([1]; 0.25 h, non-coated capsule, rabbit): 255.336 ng/mL
Plasma concentration, mean ([1]; 0.50 h, enteric coated capsule, rabbit): 0.000 ng/mL
Plasma concentration, mean ([1]; 0.50 h, non-coated capsule, rabbit): 457.796 ng/mL
Plasma concentration, mean ([1]; 1.00 h, enteric coated capsule, rabbit): 4.721 ng/mL
Plasma concentration, mean ([1]; 1.00 h, non-coated capsule, rabbit): 2349.624 ng/mL
Plasma concentration, mean ([1]; 2.00 h, enteric coated capsule, rabbit): 93.881 ng/mL
Plasma concentration, mean ([1]; 2.00 h, non-coated capsule, rabbit): 4456.537 ng/mL
Plasma concentration, mean ([1]; 4.00 h, enteric coated capsule, rabbit): 2558.779 ng/mL
Plasma concentration, mean ([1]; 4.00 h, non-coated capsule, rabbit): 16997.495 ng/mL
Plasma concentration, mean ([1]; 6.00 h, enteric coated capsule, rabbit): 7906.592 ng/mL
Plasma concentration, mean ([1]; 6.00 h, non-coated capsule, rabbit): 21418.736 ng/mL
Plasma concentration, mean ([1]; 8.00 h, enteric coated capsule, rabbit): 16147.149 ng/mL
Plasma concentration, mean ([1]; 8.00 h, non-coated capsule, rabbit): 39754.464 ng/mL
Plasma concentration, mean ([1]; 24.00 h, enteric coated capsule, rabbit): 66084.614 ng/mL
Plasma concentration, mean ([1]; 24.00 h, non-coated capsule, rabbit): 75168.570 ng/mL
Plasma concentration, mean ([1]; 48.00 h, enteric coated capsule, rabbit): 79465.599 ng/mL
Plasma concentration, mean ([1]; 48.00 h, non-coated capsule, rabbit): 77379.051 ng/mL
Plasma concentration, mean ([1]; 72.00 h, enteric coated capsule, rabbit): 49785.289 ng/mL
Plasma concentration, mean ([1]; 72.00 h, non-coated capsule, rabbit): 60164.693 ng/mL
improvement in systemic exposure compared with the milled free base active ingredient ([1]; dry milled, capsules, 90 mg/kg oral, rabbit): more modest improvement
AUCextrap ([1]; enteric coated capsule, rabbit plasma (Examples 5, 6, 7)): 69.48 ± 19.80%
AUC(0-inf) [1, 3]: 18600 ± 13800 µg·h/mL
AUC(0-t) [1, 3]: 3990 ± 43.3 µg·h/mL
Cmax [1, 3]: 79500 ± 5430 ng/mL
MRT last [1, 3]: 42 ± 0.696 h
Tmax [1, 3]: 48 h
half-life [1, 3]: 189 ± 158 h
AUC(0-inf) [1, 4]: 9370 ± 3380 µg·h/mL
AUC(0-t) [1, 4]: 4530 ± 589 µg·h/mL
Cmax [1, 4]: 81900 ± 10400 ng/mL
MRT last [1, 4]: 39.6 ± 3.88 h
Tmax [1, 4]: 40 ± 13.9 h
half-life [1, 4]: 71.6 ± 22.6 h
AUCextrap ([1]; non-coated capsule, rabbit plasma (Examples 2, 3, 4)): 52.23 ± 10.63%
Particle size distribution D10 [2, 5]: 0.382 μm
Particle size distribution D50 [2, 5]: 3.64 μm
Particle size distribution D90 [2, 5]: 26.2 μm
Particle size distribution D100 [2, 5]: 584 μm
Particle size distribution D10 [2, 6]: 0.289 μm
Particle size distribution D50 [2, 6]: 1.57 μm
Particle size distribution D90 [2, 6]: 11.7 μm
Particle size distribution D100 [2, 6]: 35.3 μm
Particle size distribution D10 ([2]; before milling): 0.876 μm
Particle size distribution D50 ([2]; before milling): 13.4 μm
Particle size distribution D90 ([2]; before milling): 205 μm
Particle size distribution D100 ([2]; before milling): 665 μm
